Experimental data taken from publication PMC11206766, “QbD-Based Development and Evaluation of Pazopanib Hydrochloride Extrudates Prepared by Hot-Melt Extrusion Technique: In Vitro and In Vivo Evaluation” (Pharmaceutics, 2024).

What was measured:
[1] = cited from earlier work
[2] = Oral pharmacokinetic / bioavailability study in rabbits; type: in vivo, New Zealand white rabbits; details: rabbit, equivalent to 200 mg pazopanib
Experimental: A bioavailability study was carried out to assess the drug absorption and pharmacokinetic parameters of different prepared formulations. A suitable animal was selected, and in vivo studies were performed in accordance with the ethical guidelines for animal care and use committee.
New Zealand white rabbits (Species and strain: […]) (5–6 months older, 2.0 ± 0.2 kg, 34–50 cm without tail) were utilized in this study. Animals were maintained at standard environmental conditions of temperature 24 ± 2 °C, humidity (55 ± 5%), under 12:12 h light (08:00–20:00 h)/dark cycle. Animals had free access to rodent chow and tap water ad libitum. Approval for animal studies was gained by the Institutional Animal Ethics Committee (Protocol no. IAEC; 1888/PO/Re/S/16/ CPCSEA/2022/01), constituted for the purpose of control and supervision of experimental animals and agreed with the globally acknowledged Principles for Laboratory Animal Use and Care as indicated by the National Institutes of Health Guide (NIH Publication No. 85–23, revised 1985). Animals were naive to drug treatments and experimentation, at the beginning of all studies. All tests were conducted at BM College of Pharmaceutical Education and Research (BMCPER), Indore, M.P. between 09:00 and 18:00 h.
Animals (n = 3) were settled into three different groups. First group (control) received Pazopanib drug (control), second group received the marketed pazopanib hydrochloride immediate release tablet (Votrient Tablets, 200 mg), while third group received drug formulations (equivalent to 200 mg of Pazopanib) prepared using HME technique, respectively. Dosage forms were administered orally via gastric intubation. Animals were fasted for 12 h with free access to water prior to drug administration. Rabbits were held in rabbit restrainers during blood sampling. Blood samples were collected in heparinized tubes from ear veins at predetermined time points (0, 0.5, 1, 2, 3, 4, 6, 8, 12, and 24 h) after oral administration. Plasma samples were obtained following centrifugation of blood at 3200× g for 5 min at 2–8 °C and kept frozen at −70 °C until analysis.
Pazopanib plasma concentration was plotted against time to obtain the concentration–time profiles, which were used to determine the peak blood concentration (Cmax) and time to achieve the peak concentration (Tmax). Non-compartmental pharmacokinetic analysis was conducted to calculate the area under the curve from 0 to 24 h [(AUC)0-24). The values of Cmax and Tmax for the test preparation were obtained by actual observations. All data were presented as mean ± standard deviation. In order to determine the area under the curve from 0 to 24 h, a non-compartmental PK study was performed using Win-Nonlin PK/PD software (version 8.1). Comparative blood plasma concentration (µg/mL) at different time points for Pazopanib drug and its formulation are depicted in below Figure 24.

[3] = oral via gastric intubation, fasted, plasma

Cc1ccc(Nc2nccc(N(C)c3ccc4c(C)n(C)nc4c3)n2)cc1S(N)(=O)=O.Cl [PZB-Drug/API, Pazopanib Hydrochloride]
BCS class [1]: BCS class II | log P [1]: 3.55 | pKa [1]: 2.5 | Cmax [2, 3]: 44700 ng/mL | Tmax [2, 3]: 2 h | T lag ([2]; oral): 0 h | AUC Last ([2]; oral, 0 to 24 h, non-compartmental): 308.675 µg·h/mL | C Last ([2]; oral, last sampling 24 h): 7.6 µg/mL
